{
  "source": "patent US9388126B2",
  "about": "“Sigma receptor ligands and methods of modulating cellular protein homeostasis using same” (Drexel University, priority 2012, dated 2016)",
  "format_in_all_cases": "cell-based, human",
  "key": {"MDA-MB-468 cells": {"test_system": "MDA-MB-468 cells", "assay": "Cell death by trypan blue exclusion", "conditions": "10 μM with bortezomib 1, 10, 100 nM, 20 hours", "method": "Trypan blue exclusion and propidium iodide staining were used to quantify general cell death and the presence of apoptotic cell death was confirmed by immunoblot. The percentage of dead cells in a given population was determined by quantifying the number of trypan blue positive (dead) cells and dividing by the total number of trypan blue positive and negative cells."}, "[1]": {"test_system": "MDA-MB-468 (GFP-LC3), MDA-MB-468 and T47D breast adenocarcinoma cells", "assay": "Autophagy markers (GFP-LC3II, GFP-LC3 punctae, endogenous LC3II)", "conditions": "10 μM, ~16 hours", "method": "FIG. 56A is an immunoblot illustrating MDA-MB-468 breast adenocarcinoma cells stably transfected with GFP-LC3 (green fluorescent protein tagged light chain 3, an autophagy marker) treated for ˜16 hours with 10 μM IPAG or 10 μM 1-3 JMS-51-58. The appearance of GFP-LC3II was an indication of autophagosome formation. FIG. 56B is an image illustrating formation of autophagosomes (GFP-LC3 punctae) in MDA468 (GFP-LC3) treated with 10 μM JMS-51-58 as in FIG. 56A. The arrow points to an example of GFP-LC3-positive autophagosomes. The white bar at the bottom of the image indicates 100 μm. FIG. 56C is an image of an immunoblot illustrating the appearance of endogenous LC3II, a marker of autophagosome formation, in MDA-MB-468 breast adenocarcinoma cells treated for 16 hours with 10 μM of JMS-51-58. FIG. 56D is an image of an immunoblot illustrating the appearance of endogenous LC3II, a marker of autophagosome formation, in T47D breast adenocarcinoma cells treated for 16 hours with 10 μM JMS-51-58."}, "[2]": {"test_system": "MDA-MB-468 and T47D breast adenocarcinoma cells", "assay": "Translational arrest immunoblot (P-S6K, P-4E-BP1)", "conditions": "10 μM, 16 hours", "method": "FIG. 57A is an image of an immunoblot illustrating MDA-MB-468 breast adenocarcinoma cells treated for 16 hours with 10 μM of JMS-51-58. FIG. 57B is an image of an immunoblot illustrating T47D breast adenocarcinoma cells treated for 16 hours with 10 μM of JMS-51-58. The levels of phosphothreonine 389-p70S6Kinase (P-S6K) and phosphoserine 65-4E-BP1 (P-4E-BP1) were evaluated by immunoblot. Decreased levels of both phosphoprotein levels indicated diminished protein synthesis."}, "[3]": {"test_system": "MDA-MB-468 and T47D breast adenocarcinoma cells", "assay": "ER stress response immunoblot (P-p38MAPK, GRP78/BiP)", "conditions": "10 μM, 16 hours", "method": "FIG. 58A is an image of an immunoblot of MDA-MB-468 breast adenocarcinoma cells treated for 16 hours with 10 μM JMS-51-58. FIG. 58B is an image of an immunoblot of T47D breast adenocarcinoma cells treated for 16 hours with 10 μM JMS-51-58. The levels of phospho-Thr 180/Tyr 182 p38MAPK (P-p38MAPK) and GRP78/BiP and were evaluated by immunoblot."}, "[4]": {"test_system": "MDA-MB-468 and MDA-MB-231 breast adenocarcinoma cells", "assay": "Poly-ubiquitylated protein immunoblot, breast adenocarcinoma cells", "conditions": "10 μM, 16 hours, MDA-MB-468 and MDA-MB-231", "method": "FIG. 34A is an image of an immunoblot of MDA-MB-468 breast adenocarcinoma cells treated with 10 μM Sigma1 antagonist (IPAG) for the indicated times, up to 24 hours. Total cell lysates were resolved by SDS-PAGE and immunoblotted with a poly-ubiquitin antibody P4D1. FIG. 34B is an image of an immunoblot of HepG2 hepatocellular carcinoma cells treated for 20 hours with 10 μM of indicated Sigma1 ligands.\nFIG. 59, comprising FIGS. 59A-59B, illustrates the finding that the novel Sigma1 ligand JMS-51-58 modulated the ubiquitin proteasome system. FIG. 59A is an image of an immunoblot evaluating the levels of poly-ubiquitylated proteins of MDA-MB-468 breast adenocarcinoma treated for 16 hours with 10 μM of JMS-51-58. FIG. 59B is an image of an immunoblot evaluating the levels of poly-ubiquitylated proteins of MDA-MB-231 breast adenocarcinoma cells treated for 16 hours with 10 μM of JMS-51-58. The levels of poly-ubiquitylated proteins were evaluated by immunoblot."}, "[5]": {"test_system": "MDA-MB-468, T47D, MDA-MB-231 and PC3 cells", "assay": "Cell proliferation by Alamar blue assay, tumor cell lines", "conditions": "four drug concentrations, 40-70 hours of treatment", "method": "In vitro cell proliferation was quantified by Alamar blue assay. The anti-proliferative effects of four drug concentrations of novel Sigma1 small molecule ligand JMS-51-2nd-58 were quantified after 40-70 hours of treatment. Data are representative of an experiment formed in triplicate for each cell line. FIG. 60A is a graph illustrating cell death in MDA-MB-468 breast adenocarcinoma cell cultures. FIG. 60B is a graph illustrating cell death in T47D breast adenocarcinoma cell cultures. FIG. 60C is a graph illustrating cell death in MDA-MB-231 breast adenocarcinoma cell cultures. FIG. 60D is a graph illustrating cell death in PC3 prostate adenocarcinoma cell cultures."}, "[6]": {"test_system": "MDA-MB-231 breast adenocarcinoma cells", "assay": "Alamar blue proliferation assay with bortezomib", "conditions": "~70 hours", "method": "FIG. 61, comprising FIGS. 61A-61B, is a set of graphs illustrating the finding that the novel Sigma1 ligand JMS-51-58 potentiated proteasome inhibitor mediated inhibition of tumor cell proliferation. In vitro cell proliferation was quantified by Alamar blue assay. The anti-proliferative effects of four drug concentrations of novel Sigma1 small molecule ligand JMS-51-58, were quantified after ˜70 hours of treatment of MDA-MB-231 breast adenocarcinoma cell cultures. […] Note the shift to the left of the dose-response curve (broken line). Data are representative of an experiment performed in triplicate."}, "MDA-MB-231 and PC3 cells": {"test_system": "MDA-MB-231 and PC3 cells", "assay": "In vitro cell adhesion by Alamar blue assay", "conditions": "16 hours in the presence of drug", "method": "In vitro cell adhesion was quantified by Alamar blue assay. MDA-MB-231 and PC3 cells were detached with 0.25% trypsin+2 mM EDTA and reseeded onto 96 well plates. At the time of cell seeding, IPAG (Sigma1 putative antagonist) was added at the indicated doses to wells containing adenocarcinoma cells. The suspended cells were allowed to sediment and adhere for 16 hours in the presence of drug. Subsequently, the culture medium was removed by aspiration, each well washed once with 0.2 ml PBS (without calcium and magnesium), and Alamar blue assay was performed to quantify the number of live cells adhered to the surface of each well. FIG. 63A is a graph illustrating cell adherence in MDA-MB-231 breast adenocarcinoma cells. FIG. 63B is a graph illustrating cell adherence in PC3 prostate adenocarcinoma cells. The same procedure was performed using the indicated concentrations of JMS-51-58. FIG. 63C is a graph illustrating cell adherence in MDA-MB-231 breast adenocarcinoma cells. FIG. 63D is a graph illustrating cell adherence in PC3 prostate adenocarcinoma cells. Standard deviation bars are shown."}},
  "data": [
    {"compound": "N=C(NCCCOc1ccc(F)cc1)Nc1ccc(I)cc1", "note": "[JMS-51-58, 1-(3-(4-fluorophenoxy)propyl)-3-(4-iodophenyl)guanidine]", "values": [
      {"measurement": "potentiation of proteasome inhibitor (bortezomib) mediated cell death", "setting": "MDA-MB-468 cells", "result": "potentiated proteasome inhibitor mediated tumor cell death"},
      {"measurement": "induction of autophagy", "setting": "[1]", "result": "induced autophagy"},
      {"measurement": "translational arrest (decreased P-S6K and P-4E-BP1)", "setting": "[2]", "result": "mediated translational arrest"},
      {"measurement": "ER stress response", "setting": "[3]", "result": "mediated ER stress response"},
      {"measurement": "levels of poly-ubiquitylated proteins", "setting": "[4]", "result": "increased ubiquitylated protein levels compared to the DMSO control"},
      {"measurement": "tumor cell proliferation", "setting": "[5]", "result": "inhibited tumor cell proliferation"},
      {"measurement": "cell proliferation and rates of cell death", "setting": "[6]; 3 μM", "result": "did not alter cell proliferation or rates of cell death"},
      {"measurement": "potentiation of bortezomib (BTZ) inhibition of cell proliferation", "setting": "[6]; sub-lethal dose (3 μM)", "result": "potentiated the cell proliferation inhibiting effects of bortezomib"},
      {"measurement": "cell adhesion", "setting": "MDA-MB-231 and PC3 cells", "result": "inhibited adhesion of metastatic breast and prostate adenocarcinoma cell lines"}
    ]}
  ]
}
